Test results published in patent publication US20250354127A1, “CRYOPRESERVED DAIRY GOAT SEMEN METABOLITE SCREENING AND DILUENT PREPARATION METHOD” (NORTHWEST A&F UNIVERSITY, priority 2024, published 2025).
Marks after values point to notes of the source that are not given here.

How the values were obtained:
dairy goat sperms = experiment: Sperm viability and motility by CASA semen assisted analysis during preservation at 4 degrees C.; type: cell-based
Method: 1) prepare base diluent: add 30.3 g/L Tris, 16.0 g/L citric acid, 6.4 g/L glucose, 6.4 g/L D-fructose, 2.5 g/L trehalose, 1.0 g/L BSA and 3.75 g/L soybean lecithin into distilled water to 1 L, dissolve in a water bath for 1 hour at 37 degrees C., filter and sterilize, and then add 1 million IU/L penicillin and 1 million IU/L streptomycin; select semen with motility more than 80% for preservation, and keep diluent warm in a water bath at 37 degrees C. before semen dilution; gradually dilute at the dilution ratio (add the diluent into each group of semen along the tube wall during the operation), dilute the semen with the diluent at 1:1 and stand for 3 minutes, then dilute the semen with the diluent at 1:3 and stand for 3 minutes, and let the ratio of semen to diluent reach 1:7 (keep the temperature at 33-35 degrees C. during dilution); bind a centrifuge tube containing the diluted semen with a rubber band and put the centrifuge tube into a beaker containing isothermal water, keep the centrifuge tube vertical and the water level in the beaker higher than the diluent level of in the centrifuge tube, place for 1 hour at room temperature, put the beaker into a refrigerator at 4 degrees C., keep the cooling rate at 8-10 degrees C./h, and shake the centrifuge tube every 8 hours to prevent the sperms from accumulating, sinking to bottom and resulting in death;
2) take 5 μL of semen on the days 0, 1, 3 and 5 of semen preservation, put the semen on slides, preheat an objective table and perform microscopic examination at 37 degrees C., and detect semen motility and viability by Meilan CASA semen assisted analysis system; select at least five random fields of view for determination, with a minimum semen count of 200 in each field; the ratio of number of live sperms to total number of sperms is sperm viability, and the ratio of number of linearly moving sperms to total number of sperms is sperm motility. Average the results, and record the test data (see Table 1);
(§1) 1) add different concentrations of gamma-aminobutyric acids into a tupping ram semen base diluent, and take a group without gamma-aminobutyric acid added as the control group; take a group with gamma-aminobutyric acid added as the experimental group, the addition concentrations are respectively 0.5 g/L, 1.0 g/L, 1.5 g/L and 2.0 g/L, and six duplications exist in each group; screen out the optimal concentration of gamma-aminobutyric acid according to semen quality indexes, set the optimal concentration to T group, and detect the semen membrane and acrosome integrity, various antioxidant enzyme activities and ROS content change after adding the optimal concentration of gamma-aminobutyric acid;

[1] = Sperm plasma membrane integrity (PMI) by SYBR-14/PI fluorescence staining; type: cell-based, dairy goat
Text: as §1

sperms = experiment: Antioxidant indexes of sperms (T-AOC, SOD, GSH-Px, MDA, CAT, ROS) by Solarbio kits; type: cell-based, dairy goat
Text: as §1

tupping ram sperms = experiment: Sperm acrosome integrity (CGI) by FITC-PNA fluorescence staining; type: cell-based, dairy goat
Text: as §1

[2] = 0.5 g/L in base diluent, Day 5 at 4 degrees C.
[3] = 1.0 g/L in base diluent, Day 5 at 4 degrees C.
[4] = 1.5 g/L in base diluent, Day 5 at 4 degrees C.
[5] = 2.0 g/L in base diluent, Day 5 at 4 degrees C.
[6] = experimental group, day 5 of preservation at 4 degrees C.
[7] = optimal concentration (T group), day 3 of preservation at 4 degrees C., P<0.05
[8] = preservation day not given, P<0.05

NCCCC(=O)O [gamma-aminobutyric acid, Gamma-aminobutyric acid]
Semen motility % (dairy goat sperms; 0.5 g/L in base diluent, Day 0): 81.36 ± 2.05% | Sperm viability % (dairy goat sperms; 0.5 g/L in base diluent, Day 0): 84.12 ± 2.15% | Semen motility % (dairy goat sperms; [2]): 50.69 ± 1.05^b % | Sperm viability % (dairy goat sperms; [2]): 52.45 ± 1.22^b % | Sperm motility compared with other addition groups (dairy goat sperms; 1 g/L): higher than those in other addition groups | Sperm viability compared with other addition groups (dairy goat sperms; 1 g/L): higher than those in other addition groups | Semen motility % (dairy goat sperms; 1.0 g/L in base diluent, Day 0): 81.36 ± 2.05% | Sperm viability % (dairy goat sperms; 1.0 g/L in base diluent, Day 0): 84.12 ± 2.15% | Semen motility % (dairy goat sperms; [3]): 53.69 ± 0.84^a % | Sperm viability % (dairy goat sperms; [3]): 56.49 ± 1.32^a % | Semen motility % (dairy goat sperms; 1.5 g/L in base diluent, Day 0): 81.36 ± 2.05% | Sperm viability % (dairy goat sperms; 1.5 g/L in base diluent, Day 0): 84.12 ± 2.15% | Semen motility % (dairy goat sperms; [4]): 47.32 ± 2.41^c % | Sperm viability % (dairy goat sperms; [4]): 50.52 ± 2.74^b % | Semen motility % (dairy goat sperms; 2.0 g/L in base diluent, Day 0): 81.36 ± 2.05% | Sperm viability % (dairy goat sperms; 2.0 g/L in base diluent, Day 0): 84.12 ± 2.15% | Semen motility % (dairy goat sperms; [5]): 45.55 ± 1.52^d % | Sperm viability % (dairy goat sperms; [5]): 45.36 ± 2.31^c % | Plasma membrane integrity of sperms [1, 6]: 58.93% | Plasma membrane integrity of sperms, T group vs NC group [1, 7]: significantly higher | GSH-Px, T group vs NC group (sperms; day 1 of preservation): not significantly different | MDA, T group vs NC group (sperms; day 1 of preservation): not significantly different | T-AOC, T group vs NC group (sperms; day 1 of preservation): not significantly different | CAT enzyme activity, T group vs NC group (sperms; day 1 of preservation, P<0.05): significantly increased | Level of ROS, T group vs NC group (sperms; day 1 of preservation, P<0.05): significantly decreased | SOD enzyme activity, T group vs NC group (sperms; day 1 of preservation, P<0.05): significantly increased | Level of CAT, T group vs NC group (sperms; [8]): significantly higher | Level of GSH-Px, T group vs NC group (sperms; [8]): significantly higher | Level of MDA, T group vs NC group (sperms; [8]): significantly lower | Level of ROS, T group vs NC group (sperms; [8]): significantly lower | Level of SOD, T group vs NC group (sperms; [8]): significantly higher | Level of T-AOC, T group vs NC group (sperms; [8]): significantly higher | Acrosome integrity of sperms (tupping ram sperms; [6]): 60.12% | Acrosome integrity of sperms, T group vs NC group (tupping ram sperms; [7]): significantly higher
